Experimental data published in PMC9127186, “Molecular Basis Underlying Hepatobiliary and Renal Excretion of Phenolic Acids of Salvia miltiorrhiza Roots (Danshen)” (Frontiers in Pharmacology, 2022).

What was measured:
[1] = biological target: T1, rat Oat2 (Rattus norvegicus, UniProt Q5RLM2); experiment: Cellular transport assay, HEK-293 cells expressing rat Oat2; conditions: for TransportTC/TransportMC ratio (net transport ratio): 10 min; for K m: rat hepatic sinusoidal uptake Oat2 (also renal apical), 5 min incubation, concentrations in Table 1
T1 sequence (Q5RLM2 1-535): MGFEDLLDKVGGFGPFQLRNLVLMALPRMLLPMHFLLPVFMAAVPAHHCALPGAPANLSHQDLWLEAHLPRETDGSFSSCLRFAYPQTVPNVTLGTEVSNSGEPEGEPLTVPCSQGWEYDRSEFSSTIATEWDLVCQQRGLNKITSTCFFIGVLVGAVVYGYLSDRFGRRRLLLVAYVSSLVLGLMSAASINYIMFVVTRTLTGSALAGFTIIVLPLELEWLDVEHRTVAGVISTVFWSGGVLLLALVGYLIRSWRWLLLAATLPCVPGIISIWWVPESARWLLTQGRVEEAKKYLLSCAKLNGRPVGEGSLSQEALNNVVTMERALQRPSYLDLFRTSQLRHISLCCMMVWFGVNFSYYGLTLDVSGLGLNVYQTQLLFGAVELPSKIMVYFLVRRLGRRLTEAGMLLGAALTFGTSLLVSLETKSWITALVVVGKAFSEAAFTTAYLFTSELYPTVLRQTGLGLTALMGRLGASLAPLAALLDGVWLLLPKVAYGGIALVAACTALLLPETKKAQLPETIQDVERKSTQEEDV

[2] = biological target: T2, human OAT4 (Homo sapiens, UniProt Q9NSA0); experiment: Cellular transport assay, HEK-293 cells expressing human OAT4; conditions: for TransportTC/TransportMC ratio (net transport ratio): 10 min; for K m: human renal apical uptake OAT4, 5 min incubation, concentrations in Table 1
T2 sequence (Q9NSA0 1-550): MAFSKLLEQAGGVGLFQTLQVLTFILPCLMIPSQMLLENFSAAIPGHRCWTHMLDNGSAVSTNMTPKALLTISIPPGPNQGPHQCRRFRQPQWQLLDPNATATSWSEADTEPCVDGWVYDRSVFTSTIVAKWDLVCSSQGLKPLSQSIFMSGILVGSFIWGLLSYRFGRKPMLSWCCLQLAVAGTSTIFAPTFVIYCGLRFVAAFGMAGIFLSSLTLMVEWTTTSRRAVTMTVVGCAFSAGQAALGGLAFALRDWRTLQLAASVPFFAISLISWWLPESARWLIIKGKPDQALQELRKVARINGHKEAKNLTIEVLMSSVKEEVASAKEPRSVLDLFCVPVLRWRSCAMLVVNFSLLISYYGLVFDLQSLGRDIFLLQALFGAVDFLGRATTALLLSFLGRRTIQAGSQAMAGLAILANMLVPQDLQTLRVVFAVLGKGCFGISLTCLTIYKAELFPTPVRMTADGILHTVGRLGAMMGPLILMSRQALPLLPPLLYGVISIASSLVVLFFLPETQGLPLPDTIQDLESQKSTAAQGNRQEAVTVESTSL

[3] = biological target: T3, human OATP1B1 (Homo sapiens, UniProt Q9Y6L6); experiment: Cellular transport assay, HEK-293 cells expressing human OATP1B1; conditions: for TransportTC/TransportMC ratio (net transport ratio): 10 min
T3 sequence (Q9Y6L6 1-691): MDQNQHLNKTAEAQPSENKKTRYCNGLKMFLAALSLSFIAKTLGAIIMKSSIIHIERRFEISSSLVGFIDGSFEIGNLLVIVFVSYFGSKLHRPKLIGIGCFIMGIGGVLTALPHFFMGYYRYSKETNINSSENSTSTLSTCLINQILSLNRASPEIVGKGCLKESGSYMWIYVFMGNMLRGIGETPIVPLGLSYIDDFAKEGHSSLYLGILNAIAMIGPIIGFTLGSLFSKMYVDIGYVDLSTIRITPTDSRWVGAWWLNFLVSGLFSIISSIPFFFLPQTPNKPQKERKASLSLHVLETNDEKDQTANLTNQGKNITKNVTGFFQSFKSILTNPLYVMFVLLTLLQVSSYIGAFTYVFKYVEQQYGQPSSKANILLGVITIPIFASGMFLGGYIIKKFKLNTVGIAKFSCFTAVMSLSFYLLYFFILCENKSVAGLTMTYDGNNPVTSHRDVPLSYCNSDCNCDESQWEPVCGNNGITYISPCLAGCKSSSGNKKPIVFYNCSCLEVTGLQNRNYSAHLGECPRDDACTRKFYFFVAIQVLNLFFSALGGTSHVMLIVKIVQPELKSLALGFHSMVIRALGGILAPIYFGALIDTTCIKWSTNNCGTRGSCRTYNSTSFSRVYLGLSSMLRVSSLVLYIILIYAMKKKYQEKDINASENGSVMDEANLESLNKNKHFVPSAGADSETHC
Outline: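 5-min uptake, linear range, LC/MS quantitation. Net ratio = transfected/mock transport rate; Km, Vmax by nonlinear fit of initial rates.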

[4] = biological target: T4, rat Oat3 (Rattus norvegicus, UniProt Q9R1U7); experiment: Cellular transport assay, HEK-293 cells expressing rat Oat3; conditions: for TransportTC/TransportMC ratio (net transport ratio): 10 min; for K m: rat renal basolateral uptake Oat3, 5 min incubation, concentrations in Table 1
T4 sequence (Q9R1U7 1-536): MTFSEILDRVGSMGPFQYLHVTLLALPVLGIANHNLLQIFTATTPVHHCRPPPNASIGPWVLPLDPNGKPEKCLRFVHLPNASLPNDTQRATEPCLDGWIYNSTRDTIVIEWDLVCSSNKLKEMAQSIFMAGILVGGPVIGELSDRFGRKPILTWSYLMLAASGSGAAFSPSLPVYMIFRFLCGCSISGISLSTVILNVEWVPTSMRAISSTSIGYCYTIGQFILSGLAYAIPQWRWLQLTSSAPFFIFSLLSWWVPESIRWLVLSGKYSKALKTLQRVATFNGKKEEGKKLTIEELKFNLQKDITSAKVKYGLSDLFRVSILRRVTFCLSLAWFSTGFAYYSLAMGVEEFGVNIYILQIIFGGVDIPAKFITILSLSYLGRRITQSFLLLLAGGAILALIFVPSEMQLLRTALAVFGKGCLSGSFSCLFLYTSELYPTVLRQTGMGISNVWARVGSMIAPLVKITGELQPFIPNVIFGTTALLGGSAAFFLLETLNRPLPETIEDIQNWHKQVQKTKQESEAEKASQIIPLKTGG

[5] = Danshen phenolic acid at 100 μM final concentration, rat Oat2-transfected vs mock cells
[6] = Danshen phenolic acid at 100 μM final concentration, human OAT4-transfected vs mock cells
[7] = Danshen phenolic acid at 100 μM final concentration, human OATP1B1-transfected vs mock cells
[8] = human hepatic sinusoidal uptake OATP1B1, 5 min incubation, concentrations in Table 1
[9] = Danshen phenolic acid at 100 μM final concentration, rat Oat3-transfected vs mock cells

K m [3, 8] [µM] | Compound | TransportTC/TransportMC ratio (net transport ratio) [1, 5] | TransportTC/TransportMC ratio (net transport ratio) [2, 6] | substrate of human OATP1B1 [3] | TransportTC/TransportMC ratio (net transport ratio) [3, 7] | TransportTC/TransportMC ratio (net transport ratio) [4, 9] | substrate of rat Oat2 [1] | K m [1] [µM] | K m [4] | substrate of rat Oat3 [4] | further results
428 ± 67 | O=C(/C=C/c1ccc(O)c2c1[C@H](C(=O)O)[C@@H](c1ccc(O)c(O)c1)O2)O[C@H](Cc1ccc(O)c(O)c1)C(=O)O [Lithospermic acid, lithospermic acid] | 1.36 ± 0.33 | 2.91 ± 0.17 | substrates | 3.99 ± 0.24 | 0.94 ± 0.23 |  |  |  |  | microsomal CLint ([3]; human): 0.06 µL/min/mg
 | O=C(O)c1ccc(O)c(O)c1 [Protocatechuic acid, protocatechuic acid] | 163 ± 30 | 1.56 ± 0.46 |  | 0.83 ± 0.14 | 16.1 ± 2.8 | substrates | 109 ± 6 | 117 ± 27 µM |  | microsomal CLint ([1]; rat): 10.9 µL/min/mg; microsomal CLint ([4]; rat): 0.57 µL/min/mg
 | O=C(/C=C/c1ccc(O)c(O)c1)O[C@H](Cc1ccc(O)c(O)c1)C(=O)O [Rosmarinic acid, rosmarinic acid] |  |  | substrates |  |  | substrates | 119 ± 15 | 24.0 ± 4.2 µM | substrates | TransportTC/TransportMC ratio (net transport ratio) ([1]; rat, 100 μM): 334 ± 18; microsomal CLint ([1]; rat, other cell line): 5.2 µL/min/mg; substrate of human OAT4 [2]: relatively weak substrates; K m [2]: 325 ± 53 µM; TransportTC/TransportMC ratio (net transport ratio) ([2]; human, 100 μM): 7.27 ± 0.77; microsomal CLint ([2]; human, other cell line): 0.15 µL/min/mg; TransportTC/TransportMC ratio (net transport ratio) ([3]; human, 100 μM): 4.00 ± 0.43; microsomal CLint ([3]; human, other cell line): 0.07 µL/min/mg; TransportTC/TransportMC ratio (net transport ratio) ([4]; rat, 100 μM): 4.45 ± 1.12; microsomal CLint ([4]; rat, other cell line): 0.15 µL/min/mg
 | O=C(/C=C/c1ccc(O)c(O)c1/C=C/c1ccc(O)c(O)c1)O[C@H](Cc1ccc(O)c(O)c1)C(=O)O [Salvianolic acid A, salvianolic acid A] |  |  | not a substrate |  |  | not substrates |  |  | not substrates | TransportTC/TransportMC ratio (net transport ratio) ([1]; rat, 100 μM): 1.41 ± 0.26; TransportTC/TransportMC ratio (net transport ratio) ([2]; human, 100 μM): 1.56 ± 0.23; TransportTC/TransportMC ratio (net transport ratio) ([3]; human, 100 μM): 1.21 ± 0.33; TransportTC/TransportMC ratio (net transport ratio) ([4]; rat, 100 μM): 1.09 ± 0.35
403 ± 85 | O=C(O)Cc1c(/C=C/C(=O)O[C@H](Cc2ccc(O)c(O)c2)C(=O)O)ccc(O)c1O [Salvianolic acid D, salvianolic acid D] | 50.5 ± 10.7 | 2.87 ± 0.09 | substrates | 5.38 ± 0.83 | 1.41 ± 0.36 | substrates | 60.0 ± 7.2 |  | not of rat Oat3 | microsomal CLint ([1]; rat): 2.73 µL/min/mg; microsomal CLint ([3]; human): 0.22 µL/min/mg
 | O=C(O)C(O)Cc1ccc(O)c(O)c1 (stereo not shown) [Tanshinol, tanshinol] |  |  |  |  |  |  | 978 ± 123 | 3,760 ± 907 μM |  | K m [2]: 3,442 ± 940 μM; microsomal CLint ([4]; rat, other cell line): 0.07 µL/min/mg

Compound | K m [3, 8] [µM] | TransportTC/TransportMC ratio (net transport ratio) [1, 5] | TransportTC/TransportMC ratio (net transport ratio) [2, 6] | substrate of human OATP1B1 [3] | TransportTC/TransportMC ratio (net transport ratio) [3, 7] | TransportTC/TransportMC ratio (net transport ratio) [4, 9] | substrate of rat Oat2 [1] | K m [1] [µM] | K m [4] | substrate of rat Oat3 [4] | further results
salvianolic acid B | 58.9 ± 6.2 | 0.92 ± 0.22 | 0.95 ± 0.23 | substrates | 5.16 ± 1.30 | 1.12 ± 0.41 |  |  |  |  | CLint ([3]; human hepatic sinusoidal uptake OATP1B1): 0.46 μL/min/mg protein; V max [3, 8]: 28.1 ± 1.2 pmol/min/mg protein
